# According to patent US20250243219A1, “MACROCYCLIC COMPOUNDS AND USES THEREOF” (Cypralis Limited, priority 2022, published 2025):
# Read-outs that look alike come from different tables or passages of the source.
# What was measured:
# [1] = target: cyclophilin D (Homo sapiens (Human), UniProt P30405); test: Functional peptidyl prolyl isomerase (PPIase) spectrophotometric assay, cyclophilin D; format: biochemical; details: second value of CypA/D cell; read-out: Ki CypD
# Method in brief: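 Cuvette-based UV/Vis assay of PPIase-catalysed cis-to-trans isomerisation of a peptide substrate. First-order rate constants fitted to absorbance, background rate subtracted. Ki derived from rate constant versus inhibitor concentration, typically 6-point curves in duplicate.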
# [2] = tested on: SH-SY5Y cells; test: Thapsigargin treated cell death assay in SH-SY5Y cells; format: cell-based, human; details: compound at 10 μM; positive = protection from cell death, negative = compound toxicity
# Method in brief: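 SH-SY5Y neuroblastoma cells given compound (typically 1, 3 and 10 μM, triplicate) 30 min before thapsigargin, with cyclosporin A (3 and 10 μM) as positive control. Cell death read kinetically over 24 h by CellTox Green DNA-binding fluorescence; values are % recovery at 10 μM, usually at 8 h, positive meaning protection.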
# [3] = tested on: pancreatic acinar cells; test: Protection of pancreatic acinar cells against TLCS toxicity (propidium iodide uptake, FIG. 1); format: cell-based; details: propidium iodide uptake as measure of necrotic cells
# Description: FIG. 1 propidium iodide (PI) up-take as a measure of the number of dead pancreatic acinar cells (through necrosis) as a percentage against a number of treatments with Compound (2) and cyclosporin A and controls in an in-vitro model based on pancreatic acinar cells against the toxicity of the bile acid taurolithocholic acid-3-sulphate (TLCS);
# WO 2021/115299 (Zuo) discloses compounds that protect against acute kidney injury caused by many different causes. The same compounds are disclosed in U.S. Pat. No. 6,583,265 (C-Chem AG) as cyclophilin inhibitors. There is no enzyme inhibiting, receptor binding or ion channel activity known for these compounds other than inhibition of cyclophilins. It can therefore be concluded that the compounds of the present invention, which are potent cyclophilin inhibitors but have no activity on other enzymes or receptors, have the same spectrum of properties.
# FIG. 1 illustrates two sets of results.
# [4] = Blood-brain barrier penetration, intravenous dosing; format: in vivo, rodents (mice or rats); details: 3 mg/kg intravenous
# Experimental: Test compounds were administered to rodents (mice or rats) either orally, subcutaneously or intravenously. To determine blood or plasma concentrations blood samples were taken at different time points and analysed for the concentration of test compound by LC/MS. Brain concentrations were measured by sacrificing animals and LC/MS analysis of brain homogenate.
# The results for Compounds (2), (19), (6) and (27) are summarised in Table 6 showing concentrations of the Compounds in blood plasma and the brain.
# [5] = tested on: EAE C57BL/6J mice; test: Experimental autoimmune encephalomyelitis (EAE) mouse model of multiple sclerosis; format: in vivo; details: 75 mg/kg orally BID for 14 days
# Experimental: C57BL/6 mice are the most commonly used strain. For the induction of EAE, typically, the immunogenic epitope MOG35-55 of myelin oligodendrocyte glycoprotein is suspended in complete Freund's adjuvant (CFA) prior to immunization. Thereafter, pertussis toxin (PT) is applied on the day of immunization and a couple of days later to facilitate the induction of EAE. Animals are assessed by body weight change, EAE scoring and histopathological examination for both inflammation and demyelination.
# Compound (2) was dissolved at a dose level of 75 mg/kg with a final concentration of 20 mg/ml (in 66.6% PEG/water), and administered orally BID (i.e. every 12 hours) to C57BL/6J mice at a dose volume of 3.75 ml/kg. Treatment was started concomitant with the first signs of disease (around days 10-12) and continued for 14 days. The animals were evaluated for general clinical signs, body weight change and neurological score. After termination of treatment the animals were sacrificed, brains and spinal cords were collected, fixed in formalin 4% and processed for staining with haematoxylin and eosin.
# [6] = tested on: animal models of acute pancreatitis; details: Mukherjee et al., Gut Online, 12 Jun. 2015; cited from earlier work
# [7] = vs vehicle group, not statistically significant
# cyclophilin D, sequence (P30405 30-207, species assumed): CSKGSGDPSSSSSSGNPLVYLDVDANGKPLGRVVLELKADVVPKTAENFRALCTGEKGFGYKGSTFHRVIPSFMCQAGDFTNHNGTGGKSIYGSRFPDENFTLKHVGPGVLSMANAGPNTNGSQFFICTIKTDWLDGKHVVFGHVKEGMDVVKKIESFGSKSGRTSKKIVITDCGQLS
compound,measurement,setting,value
CC(C)[C@@H]1OC(=O)C(C)(C)/C=C/c2ccc3ccc(nc3c2)N(C)NC(=O)[C@@H]2CCCN(N2)C(=O)[C@H](C)NC1=O [Compound (2)],Ki,[1],17 nM
same,SYSY [10 μM] % recovery,[2],40.4%
same,Protection of pancreatic acinar cells against toxicity of TLCS,[3],protect pancreatic acinar cells against the toxicity
same,Blood-brain barrier passage,[4],passed the blood-brain barrier
same,concentration at 30 min,"[4]; brain, read-out: Brain concentration",170 ng/mL
same,concentration at 30 min,"[4]; plasma, read-out: Plasma concentration",222 ng/mL
same,Extent of spinal cord damage,"[5]; vs untreated control, FIG. 4",significant reduction
same,Body weight gain,[5]; [7],better body weight gain
same,Clinical score,[5]; [7],reduction in the clinical score
same,Protection in animal models of acute pancreatitis,[6],protective
